According to US20170159129A1, “METHODS FOR DETECTING TELOMERE MAINTENANCE MECHANISMS” (priority 2015, published 2017):

Test system: ALT+ cell lines U2OS, Saos-2 and G-292
Test: Flow-FISH G to C ratio assay for inhibition of ALT activity in ALT+ cell lines
Type: cell-based
Conditions: ALT+ cell lines incubated with 3 mM HU for 48 hours; untreated ALT+ lines above 0.8; ratio below 0.8 indicates a decrease in ALT activity
From the text: The present disclosure is directed to a novel improvement of flow-FISH that has been adapted for quantifying ALT activity in a cell. Briefly, cells to be analyzed are first mixed with an internal standard for telomeric DNA content. In one embodiment, the 1301 cell line, a T-cell leukemia cell line with long homogeneous telomeres is used. In other embodiments, flow cytometry microbeads with telomeric oligonucleotides can also be used to provide a standard. […] In some embodiments, the labels have the same fluorescence and stability characteristics (e.g. FITC). In other embodiments, the labels for the two probes may be different and have different fluorescence and stability characteristics. […] After incubation, cells are washed in flow cytometry staining buffer and then analyzed by flow cytometry.
Relative C-strand content and relative G-strand content of the sample cells is determined, and a ratio of G content to C content calculated. First, the mean fluorescence of the probes is measured for both sample cells and standard. […] The fluorescent marker in the standard allows for identification of the internal standard and separation of its Tel G and Tel C probe fluorescence. […]

NC(=O)NO [hydroxyurea]
G to C ratio (relative telomeric G content to C content, relative to 1301 cell standard): below 0.8
